# Reference: patent US11897901B1, “6-amino-8,9-di(4-methoxyphenyl)-2-oxo-3,9-dihydro-2H-[1,3]thiazolo[5′,4′:5,6]pyrano[2,3-b]pyridine-7-carbonitrile as anticancer compound” (KING FAISAL UNIVERSITY, priority 2023, dated 2024)
# Key:
# [1] = system: human osteosarcoma cells (MG-63); assay: Assessment of cytotoxicity by SRB assay, MG-63 cells; type: cell-based; conditions: 0.01 μM to 100 μM, 72 h
# Procedure: (§1) The human prostate cancer cells (PC3) and human osteosarcoma cells (MG-63) were obtained from Nawah Scientific Inc. (Mokatam, Cairo, Egypt) and cultured in DMEM (Dulbecco's modified eagle's medium), Gibco, USA, supplemented with fetal bovine serum (FBS) at a concentration of 10% and 100 U/mL of penicillin and streptomycin (PS). The Cells were incubated at 37° C. in a humidified environment that contained 5% CO2.
# (§2) Cells were seeded in 96-well plates as aliquots of 100 μL cell suspension and incubated in a complete media for 24 h. Afterward, cells were treated with 6-amino-8,9-di(4-methoxyphenyl)-2-oxo-3,9-dihydro-2H-[1,3]thiazolo[5′,4′:5,6]pyrano[2,3-b]pyridine-7-carbonitrile (2) at diverse concentrations ranging from 0.01 μM to 100 μM for 72 h. Then, cells were fixed at 4° C. for one hour with 150 μL of 10% trichloroacetic acid (TCA). After washing the cells five times with distilled water, 70 μL of sulforhodamine (SRB) solution (0.4% w/v) was added and incubated for 10 min at room temperature in a dark place. […] Then, 150 μL of Tris pH 10.5 (10 mM) was added, and the absorbance was measured at 540 nm using a BMG LABTECH®-FLUOstar Omega microplate reader (Ortenberg, Germany). Half maximal inhibitory concentration (IC50) values were calculated for each experiment using GraphPad Prism 6 software. […]
# (§3) The inhibition was calculated using the following equation: Inhibition %=100−Average Viability
# [2] = system: human prostate cancer cells (PC3); assay: Assessment of cytotoxicity by SRB assay, PC3 cells; type: cell-based; conditions: 0.01 μM to 100 μM, 72 h
# Procedure: as §1, §2, §3
smiles,measurement,setting,value
"COc1ccc(-c2c(C#N)c(N)nc3c2C(c2ccc(OC)cc2)c2sc(=O)[nH]c2O3)cc1 (stereo not drawn) [Compound 2, 6-amino-8,9-di(4-methoxyphenyl)-2-oxo-3,9-dihydro-2H-[1,3]thiazolo[5′,4′:5,6]pyrano[2,3-b]pyridine-7-carbonitrile]",antiproliferative activities against osteosarcoma (MG-63) cells,[1],excellent antiproliferative activities
same,antiproliferative activities against cancer cells (PC3),[2],excellent antiproliferative activities
same,melting point,,234 to 236 °C
